Results taken from ChEMBL document CHEMBL4765474, “Discovery of a "Gatekeeper" Antagonist that Blocks Entry Pathway to Retinoid X Receptors (RXRs) without Allosteric Ligand Inhibition in Permissive RXR Heterodimers” (J Med Chem, 2021).

Tests used:
[1] = target: T1, Retinoic acid receptor RXR-alpha (Homo sapiens, UniProt P19793); assay: Competitive antagonist activity at human RXRA/RXRA expressed in African green monkey COS7 cells assessed as reduction in bexarotene-induced receptor activation by RXRE-dependent luciferase reporter gene assay; assay type: cell-based; details: read-out: pA2 (converted)
T1 sequence (P19793 whole entry): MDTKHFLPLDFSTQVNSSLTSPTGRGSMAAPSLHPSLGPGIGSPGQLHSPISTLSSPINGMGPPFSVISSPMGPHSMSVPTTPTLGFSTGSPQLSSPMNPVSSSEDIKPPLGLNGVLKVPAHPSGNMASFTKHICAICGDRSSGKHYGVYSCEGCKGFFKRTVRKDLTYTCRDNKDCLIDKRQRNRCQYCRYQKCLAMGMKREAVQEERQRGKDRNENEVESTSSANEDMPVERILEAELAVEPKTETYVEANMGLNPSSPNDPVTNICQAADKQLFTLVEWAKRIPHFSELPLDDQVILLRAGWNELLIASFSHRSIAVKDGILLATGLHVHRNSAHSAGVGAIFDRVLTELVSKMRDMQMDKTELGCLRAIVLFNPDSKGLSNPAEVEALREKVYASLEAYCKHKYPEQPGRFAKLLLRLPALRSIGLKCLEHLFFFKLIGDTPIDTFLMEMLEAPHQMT

[2] = target: RXR alpha/PPAR gamma (Homo sapiens, UniProt P19793); assay: Competitive antagonist activity at human PPAR-gamma/RXRA expressed in African green monkey COS7 cells assessed as reduction in bexarotene-induced receptor activation by RXRE-dependent luciferase reporter gene assay; assay type: cell-based; details: read-out: pA2 (converted)
Chain of RXR alpha/PPAR gamma (P37231 whole entry, one chain of several): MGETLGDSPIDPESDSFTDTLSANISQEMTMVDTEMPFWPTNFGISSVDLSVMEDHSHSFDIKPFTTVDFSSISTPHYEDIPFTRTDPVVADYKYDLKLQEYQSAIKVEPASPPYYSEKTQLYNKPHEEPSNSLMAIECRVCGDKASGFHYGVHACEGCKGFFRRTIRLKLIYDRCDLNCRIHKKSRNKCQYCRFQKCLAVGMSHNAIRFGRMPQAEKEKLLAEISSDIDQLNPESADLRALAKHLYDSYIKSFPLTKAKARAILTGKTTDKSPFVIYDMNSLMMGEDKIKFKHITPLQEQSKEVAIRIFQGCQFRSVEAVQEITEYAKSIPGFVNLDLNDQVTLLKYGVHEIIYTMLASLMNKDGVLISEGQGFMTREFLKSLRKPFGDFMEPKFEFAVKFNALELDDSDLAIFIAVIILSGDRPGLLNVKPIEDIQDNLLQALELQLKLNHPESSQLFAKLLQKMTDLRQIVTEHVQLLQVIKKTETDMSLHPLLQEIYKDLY

[3] = target: T2, Retinoic acid receptor RXR-alpha/oxysterols receptor LXR-alpha (Homo sapiens, UniProt P19793); assay: Competitive antagonist activity at human LXR-alpha/RXRA expressed in African green monkey COS7 cells assessed as reduction in bexarotene-induced receptor activation by RXRE-dependent luciferase reporter gene assay; assay type: cell-based; details: read-out: pA2 (converted)
T2 sequence (P19793 whole entry): T1 sequence (P19793 whole entry)
T2 sequence (Q13133 whole entry): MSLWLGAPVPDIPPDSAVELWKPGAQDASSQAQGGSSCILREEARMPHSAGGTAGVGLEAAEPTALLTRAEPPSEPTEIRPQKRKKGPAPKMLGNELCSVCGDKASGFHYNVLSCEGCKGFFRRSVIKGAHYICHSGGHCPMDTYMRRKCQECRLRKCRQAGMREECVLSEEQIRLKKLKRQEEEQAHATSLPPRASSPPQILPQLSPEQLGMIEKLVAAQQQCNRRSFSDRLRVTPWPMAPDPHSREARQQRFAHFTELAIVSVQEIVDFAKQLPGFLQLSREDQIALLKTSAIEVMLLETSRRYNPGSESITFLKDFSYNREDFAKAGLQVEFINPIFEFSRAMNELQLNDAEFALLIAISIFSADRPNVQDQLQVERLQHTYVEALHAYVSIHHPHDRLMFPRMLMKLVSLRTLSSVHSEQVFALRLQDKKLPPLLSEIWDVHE

[4] = target: T1, Retinoic acid receptor RXR-alpha; assay: Binding affinity to human RXR-alpha LBD incubated for 2 hrs by tryptophan fluorescence quenching assay
[5] = target: T1, Retinoic acid receptor RXR-alpha; assay: Displacement of [3H]-9-cis retinoic acid from recombinant human RXR-alpha LBD by liquid scintillation counting based competitive ligand binding assay
[6] = target: T1, Retinoic acid receptor RXR-alpha; assay: Binding affinity to human RXR-alpha by ITC analysis

Kb [1]: 63.1 nM
Kb [2]: 10 nM
Kb [3]: 302 nM
Kd [4]: 260 nM
Ki [5]: 1340 nM
Kd [6]: 1350 nM
SMILES: CCCCCCOc1cc2c(cc1N(C)c1ncc(C(=O)O)cn1)C(C)(C)CCC2(C)C
